Each structure is given as a SMILES string. Some results are limits rather than exact numbers.

The target of this assay is GST-Bcl-2 (Homo sapiens (Human), UniProt P10415). Nature of the assay: Time Resolved-Fluorescence Resonance Energy Transfer (TR-FRET) Bcl-2 binding assay. The following applies: GST-Bcl-2 1 nM, F-Bak peptide probe 100 nM, Tb-anti-GST antibody 1 nM; Ki by Wang's equation. The gist of the method: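 Ki values derived from TR-FRET displacement of F-Bak peptide from GST-Bcl-2, detected with Tb-labelled anti-GST antibody (ex 340, em 520/495 nm). Compound dilution series started at 50 μM (2× starting concentration); room-temperature incubation 3 hours.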
Chain of GST-Bcl-2 (P10415 whole entry): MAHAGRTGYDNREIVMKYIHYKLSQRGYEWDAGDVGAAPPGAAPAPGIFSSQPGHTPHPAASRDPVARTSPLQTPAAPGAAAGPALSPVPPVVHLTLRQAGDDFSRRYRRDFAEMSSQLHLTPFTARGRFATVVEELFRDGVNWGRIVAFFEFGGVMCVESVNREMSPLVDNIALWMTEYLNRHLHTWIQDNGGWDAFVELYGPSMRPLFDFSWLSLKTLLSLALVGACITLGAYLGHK
Background: Time-resolved FRET reads energy transfer from a long-lived donor to a nearby acceptor.
Consider `CC1(C)CCC(CN2CCN(c3ccc(C(=O)NS(=O)(=O)c4cnc(OC[C@@H]5CCN(C(CF)CF)C5)c(Cl)c4)c(Oc4cnc(N)c(Cl)c4)c3)CC2)=C(c2ccc(Cl)cc2)C1` [Example 399, 2-[(6-amino-5-chloropyridin-3-yl)oxy]-N-{[5-chloro-6-({(3R)-1-[2-fluoro-1-(fluoromethyl)ethyl]pyrrolidin-3-yl}methoxy)pyridin-3-yl]sulfonyl}-4-(4-{[2-(4-chlorophenyl)-4,4-dimethylcyclohex-1-en-1-yl]methyl}piperazin-1-yl)benzamide], for which the Ki – broadly, the dissociation constant of the complex between target and ligand, obtained from inhibition or displacement – was below 0.01 nM.
Regarding `CC1(C)CCC(CN2CCN(c3ccc(C(=O)NS(=O)(=O)c4cnc(OC[C@@H]5CCN(CC(F)F)C5)c(Cl)c4)c(Oc4cnc(N)c(Cl)c4)c3)CC2)=C(c2ccc(Cl)cc2)C1` [Example 400, 2-[(6-amino-5-chloropyridin-3-yl)oxy]-N-[(5-chloro-6-{[(3R)-1-(2,2-difluoroethyl)pyrrolidin-3-yl]methoxy}pyridin-3-yl)sulfonyl]-4-(4-{[2-(4-chlorophenyl)-4,4-dimethylcyclohex-1-en-1-yl]methyl}piperazin-1-yl)benzamide], the affinity corresponds to a Ki of 0.082 nM.
`CC1(C)CCC(CN2CCN(c3ccc(C(=O)NS(=O)(=O)c4cnc(OCC5(F)CCOCC5)c(F)c4)c(Oc4cnc(N)c(Cl)c4)c3)CC2)=C(c2ccc(Cl)cc2)C1` [Example 402, 2-[(6-amino-5-chloropyridin-3-yl)oxy]-4-(4-{[2-(4-chlorophenyl)-4,4-dimethylcyclohex-1-en-1-yl]methyl}piperazin-1-yl)-N-({5-fluoro-6-[(4-fluorotetrahydro-2H-pyran-4-yl)methoxy]pyridin-3-yl}sulfonyl)benzamide]: the Ki was determined as 0.039 nM.
Regarding `CC1(C)CCC(CN2CCN(c3ccc(C(=O)NS(=O)(=O)c4cnc(OCC5(F)CCN(CC(F)F)CC5)c(Cl)c4)c(Oc4cnc(N)c(Cl)c4)c3)CC2)=C(c2ccc(Cl)cc2)C1` [Example 403, 2-[(6-amino-5-chloropyridin-3-yl)oxy]-N-[(5-chloro-6-{[1-(2,2-difluoroethyl)-4-fluoropiperidin-4-yl]methoxy}pyridin-3-yl)sulfonyl]-4-(4-{[2-(4-chlorophenyl)-4,4-dimethylcyclohex-1-en-1-yl]methyl}piperazin-1-yl)benzamide], affinity was put at a Ki of 2.14 nM.
Compound `CC1(C)CCC(CN2CCN(c3ccc(C(=O)NS(=O)(=O)c4ccc(OCC5(F)CCOCC5)c(Cl)c4)c(Oc4cnc(N)c(Cl)c4)c3)CC2)=C(c2ccc(Cl)cc2)C1` [Example 404, 2-[(6-amino-5-chloropyridin-3-yl)oxy]-N-({3-chloro-4-[(4-fluorotetrahydro-2H-pyran-4-yl)methoxy]phenyl}sulfonyl)-4-(4-{[2-(4-chlorophenyl)-4,4-dimethylcyclohex-1-en-1-yl]methyl}piperazin-1-yl)benzamide] had a Ki of 0.069 nM.
As for `CC1(C)CCC(CN2CCN(c3ccc(C(=O)NS(=O)(=O)c4cnc(OCC5(F)CCN(C(CF)CF)CC5)c(C(F)(F)F)c4)c(Oc4cnc(N)c(Cl)c4)c3)CC2)=C(c2ccc(Cl)cc2)C1` [Example 405, 2-[(6-amino-5-chloropyridin-3-yl)oxy]-4-(4-{[2-(4-chlorophenyl)-4,4-dimethylcyclohex-1-en-1-yl]methyl}piperazin-1-yl)-N-{[6-({4-fluoro-1-[2-fluoro-1-(fluoromethyl)ethyl]piperidin-4-yl}methoxy)-5-(trifluoromethyl)pyridin-3-yl]sulfonyl}benzamide], the affinity corresponds to a Ki of 0.354 nM.
With `CC1(C)CCC(CN2CCN(c3ccc(C(=O)NS(=O)(=O)c4ccc(NCC5CCOCC5)c([N+](=O)[O-])c4)c(Oc4ccccc4-c4cn[nH]c4)c3)CC2)=C(c2ccc(Cl)cc2)C1` [Example 406, 4-(4-{[2-(4-chlorophenyl)-4,4-dimethylcyclohex-1-en-1-yl]methyl}piperazin-1-yl)-N-({3-nitro-4-[(tetrahydro-2H-pyran-4-ylmethyl)amino]phenyl}sulfonyl)-2-[2-(1H-pyrazol-4-yl)phenoxy]benzamide] the figure was 0.166 nM.
`CC1(C)CCC(CN2CCN(c3ccc(C(=O)NS(=O)(=O)c4ccc(NCC5CCOCC5)c([N+](=O)[O-])c4)c(Oc4ccccc4-c4cccnc4N)c3)CC2)=C(c2ccc(Cl)cc2)C1` [Example 407, 2-[2-(2-aminopyridin-3-yl)phenoxy]-4-(4-{[2-(4-chlorophenyl)-4,4-dimethylcyclohex-1-en-1-yl]methyl}piperazin-1-yl)-N-({3-nitro-4-[(tetrahydro-2H-pyran-4-ylmethyl)amino]phenyl}sulfonyl)benzamide] returned an inhibition constant Ki of 0.946 nM. This Ki lies about 5.7-fold higher than the previous one.
Compound `CC1(C)CCC(CN2CCN(c3ccc(C(=O)NS(=O)(=O)c4ccc(NCC5CCOCC5)c([N+](=O)[O-])c4)c(Oc4ccccc4-c4ccn[nH]4)c3)CC2)=C(c2ccc(Cl)cc2)C1` [Example 408, 4-(4-{[2-(4-chlorophenyl)-4,4-dimethylcyclohex-1-en-1-yl]methyl}piperazin-1-yl)-N-({3-nitro-4-[(tetrahydro-2H-pyran-4-ylmethyl)amino]phenyl}sulfonyl)-2-[2-(1H-pyrazol-5-yl)phenoxy]benzamide] yielded a Ki of 1.16 nM. The Ki values of the last two compounds are within 1.5-fold of each other.
In turn, `CC1(C)CCC(CN2CCN(c3ccc(C(=O)NS(=O)(=O)c4cnc(OCC5CCC(F)(F)CC5)c(Cl)c4)c(Oc4cnc(N)c(Cl)c4)c3)CC2)=C(c2ccc(Cl)cc2)C1` [Example 409, 2-[(6-amino-5-chloropyridin-3-yl)oxy]-N-({5-chloro-6-[(4,4-difluorocyclohexyl)methoxy]pyridin-3-yl}sulfonyl)-4-(4-{[2-(4-chlorophenyl)-4,4-dimethylcyclohex-1-en-1-yl]methyl}piperazin-1-yl)benzamide] had a Ki of 0.686 nM.
In the case of `CC1(C)CC(c2ccc(Cl)cc2)=C(CN2CCN(c3ccc(C(=O)NS(=O)(=O)c4cnc(OCC5CCC(F)(F)CC5)c(Cl)c4)c(Oc4cc5cc[nH]c5cc4F)c3)CC2)CO1` [Example 410, N-({5-chloro-6-[(4,4-difluorocyclohexyl)methoxy]pyridin-3-yl}sulfonyl)-4-(4-{[4-(4-chlorophenyl)-6,6-dimethyl-5,6-dihydro-2H-pyran-3-yl]methyl}piperazin-1-yl)-2-[(6-fluoro-1H-indol-5-yl)oxy]benzamide], the Ki was below 0.01 nM.
The compound `CC1(C)CCC(CN2CCN(c3ccc(C(=O)NS(=O)(=O)c4ccc(NCC5CCC(F)(F)CC5)c([N+](=O)[O-])c4)c(Oc4cc5cc[nH]c5cc4F)c3)CC2)=C(c2ccc(Cl)cc2)C1` [Example 411, 4-(4-{[2-(4-chlorophenyl)-4,4-dimethylcyclohex-1-en-1-yl]methyl}piperazin-1-yl)-N-[(4-{[(4,4-difluorocyclohexyl)methyl]amino}-3-nitrophenyl)sulfonyl]-2-[(6-fluoro-1H-indol-5-yl)oxy]benzamide] returned a Ki of 21.3 nM.

Source of the values: patent US8952157B2, “Apoptosis-inducing agents for the treatment of cancer and immune and autoimmune diseases” (AbbVie Inc., priority 2008, dated 2015).
